Experiment: Stability of each ingredient according to time and temperature (HPLC content)
Type: physicochemical
Set-up: content of ingredient: unit not given here
Conditions: for stability of ingredient content over time and temperature: summary in words of Table 3, FIGS. 6 to 8
Description: In order to compare the catechin contents of the fermented green tea extract, each sample was analyzed by WATERS 2695 HPLC manufactured by Alliance, and analyzed using an ODS (C18) column. […] Each numerical value in Table 1 indicates the wt % of the corresponding ingredient, based on the total weight ratio of the extract.

[1] = Week 16: 45° C./Normal pressure
[2] = Week 16: Room temperature/Normal pressure
[3] = Week 25: 45° C./Normal pressure
[4] = Week 25: Refrigerated/Normal pressure
[5] = Week 25: Room temperature/Normal pressure

Row | Compound | content of ingredient (Day 1 (Feb. 20, 2017)) | content of ingredient (Week 1 (Feb. 27, 2017)) | content of ingredient (Week 2 (Mar. 6, 2017)) | content of ingredient [1] | content of ingredient [2] | content of ingredient [3] | content of ingredient [4] | content of ingredient [5] | stability of ingredient content over time and temperature
1 | Oc1cc(O)c2c(c1)O[C@H](c1cc(O)c(O)c(O)c1)[C@H](O)C2 [EGC, epigallocatechin] | 2.12 | 2.12 | 2.19 | 2.50 | 2.84 | 2.28 | 2.61 | 2.06 | 
2 | O=C(O[C@@H]1Cc2c(O)cc(O)cc2O[C@H]1c1cc(O)c(O)c(O)c1)c1cc(O)c(O)c(O)c1 [GCG, (−)-gallocatechin gallate] | 7.80 | 7.95 | 7.79 | 8.74 | 8.72 | 7.62 | 7.93 | 7.27 | maintained relatively stably
3 | (−)-epigallocatechin gallate [EGCG] | 7.48 | 7.70 | 7.53 | 7.72 | 7.79 | 6.61 | 7.19 | 6.19 | rapidly decreased after a predetermined period
4 | epicatechin 3-O-gallate [ECG] | 2.22 | 2.28 | 2.27 | 2.38 | 2.36 | 2.21 | 2.15 | 2.02 | 

Source: US11266706B2, “Method for preventing or alleviating lipid metabolism disorders using composition containing green tea extract with increased specific ingredient content” (AMOREPACIFIC CORPORATION, priority 2017, dated 2022)
